Literature values in patent US20140256761A1, “ENHANCED ARTEMISININ-BASED COMBINATION THERAPY FOR TREATING PARASITIC MEDIATED DISEASE” (priority 2009, published 2014).

What was measured:
[1] = generally considered
[2] = in vivo
[3] = in water or oils

solubility [3]	Structure (SMILES)	also measured
	COc1ccc2cc3[n+](cc2c1OC)CCc1cc2c(cc1-3)OCO2 [Berberine, (5,6-Dihydro-9,10-dimethoxybenzo[g]-1,3-benzodioxolo[5,6-a]quinolizinium)]	toxicity [1]: non-toxic
	COc1cc(NC(C)CCCN)c2ncccc2c1 (centres unmarked) [Primaquine]	absorption from the gastro-intestinal tract [2]: readily absorbed
lipid-soluble	CO[C@H]1O[C@@H]2O[C@@]3(C)CC[C@H]4[C@H](C)CC[C@@H]([C@H]1C)[C@@]24OO3 [artemether, (+)-(3-alpha,5a-beta,6-beta,8a-beta, 9-alpha,12-beta,12aR)-decahydro-10-methoxy-3,6,9-trimethyl-3,12-epoxy-12H-pyrano(4,3-j)-1,2-benzodioxepin]	
water-soluble	C[C@H]1[C@H](OC(=O)CCC(=O)O)O[C@@H]2O[C@@]3(C)CC[C@H]4[C@H](C)CC[C@@H]1[C@@]24OO3 [artesunate, 3R,5aS,6R,8aS,9R,10S,12R,12aR)-Decahydro-3,6,9-trimethyl-3,12-epoxy-12H-pyrano(4,3-j)-1,2-benzodioxepin-10-ol hydrogen succinate]	

Structure (SMILES)	solubility [3]	also measured
C[C@@H]1CC[C@H]2[C@@H](C)C(=O)O[C@@H]3O[C@@]4(C)CC[C@@H]1[C@]32OO4 [artemisinin]	sparingly soluble	
